Measured values: EP1242382B1, “TRICYCLIC PROTEIN KINASE INHIBITORS” (Wyeth, priority 1999, dated 2001)
Values after ≈ are worked out from the molar mass of the structure shown.

Experiments:
[1] = molecular target: T1, EGF-R Kinase (recombinant enzyme) (Homo sapiens, UniProt P00533); assay: Inhibition of Epidermal Growth Factor Receptor Kinase (EGF-R) using recombinant enzyme; assay type: biochemical; settings: RR-SRC peptide substrate, (a) = average of two tests
T1 construct: EGFR cDNA encoding amino acids 645 - 1186 preceded by Met-Ala-(His)6; made in house; host or cells: Sf9 insect cells, recombinant baculovirus vHcEGFR52
T1 sequence (P00533 669-1210): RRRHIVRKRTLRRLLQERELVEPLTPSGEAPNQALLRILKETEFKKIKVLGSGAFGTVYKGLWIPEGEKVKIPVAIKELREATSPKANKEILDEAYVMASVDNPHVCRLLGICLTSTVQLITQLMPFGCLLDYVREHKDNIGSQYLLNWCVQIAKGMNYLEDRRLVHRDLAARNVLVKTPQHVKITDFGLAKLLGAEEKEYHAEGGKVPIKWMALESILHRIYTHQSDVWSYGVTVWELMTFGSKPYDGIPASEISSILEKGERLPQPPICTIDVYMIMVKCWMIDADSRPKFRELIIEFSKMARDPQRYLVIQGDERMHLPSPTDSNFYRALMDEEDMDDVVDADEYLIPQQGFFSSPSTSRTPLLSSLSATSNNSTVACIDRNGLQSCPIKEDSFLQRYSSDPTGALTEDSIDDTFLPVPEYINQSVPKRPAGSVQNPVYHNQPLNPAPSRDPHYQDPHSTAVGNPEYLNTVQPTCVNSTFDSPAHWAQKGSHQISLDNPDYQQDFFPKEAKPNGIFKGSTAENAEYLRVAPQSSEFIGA
Description: Representative test compounds are evaluated in a standard pharmacological test procedure to measure their ability to inhibit the phosphorylation of the tyrosine residue of a peptide substrate catalyzed by the enzyme epidermal growth factor receptor kinase. […] The enzyme used in this assay is the His-tagged cytoplasmic domain of EGFR. […] Sf9 cells in 100 mm plates are infected at a multiplicity of infection of 10 pfu/cell and cells are harvested 48 h post infection. A cytoplasmic extract is prepared using 1% Triton X-100 and applied to Ni-NTA column. After washing the column with 20 mM imidazole, HcEGFR is eluted with 250 mM imidazole (in 50 mM Na2HPO4, pH 8.0, 300 mM NaCl). Fractions collected are dialyzed against 10 mM HEPES, pH 7.0, 50 mM NaCl, 10% glycerol, 1ug/mL antipain and leupeptin and 0.1 mM Pefabloc SC. The protein is frozen in dry ice/methanol and stored -70°C.
Test compounds are made into 10 mg/mL stock solutions in 100% dimethylsulfoxide (DMSO). Prior to experiment, stock solutions are diluted to 500 uM with 100% DMSO and then serially diluted to the desired concentration with HEPES buffer (30 mM HEPES pH 7.4).
For the enzyme reaction, 10 uL of each inhibitor (at various concentrations) are added to each well of a 96-well plate. To this is added 3 uL of enzyme (1:10 dilution in 10mM HEPES, pH 7.4 for final conc. of 1:120). This is allowed to sit for 10 min on ice and is followed by the addition of 5 ul peptide (80 uM final conc.), 10ul of 4X Buffer containing 50 mM HEPES (pH 7.4), 200 mM Na3VO4, 40mM MnCl2, 80 uM ATP, 0.25 uL ^33P-ATP (>2500 Ci/mmol; Amersham) and 12 uL H2O. The reaction is allowed to run for 90 min at room temperature and is followed by spotting the entire volume onto precut P81 filter papers. The filter discs are washed 2X with 0.5% phosphoric acid and radioactivity is measured using a liquid scintillation counter.
The % inhibition of the test compound is determined for at least three different concentrations and the IC50 value is evaluated from the dose response curve. […] CPM(control) is in units of counts per minute and is a number expressing the amount of radiolabled ATP (γ-^33P) incorporated into the RR-SRC peptide substrate by the enzyme after 90 minutes at room temperature in the absence of test compound as measured by liquid scintillation counting. The CPM values are corrected for the background counts produced by ATP in the absence of the enzymatic reaction.

A431 = assay: Inhibition of cancer cell growth as measured by cell number (Sulforhodamine B); assay type: cell-based; settings: Homo sapiens, A-431; 48 hours exposure
Description: (§1) Human tumor cell lines are plated in 96-well plates (250 µl/well, 1-6 x 10^4 cells/ml) in RPMI 1640 medium, containing 5% FBS (Fetal Bovine Serum). Twenty four hours after plating, test compounds are added at various concentrations. After 48 hours exposure to test compounds, cells are fixed with trichloroacetic acid, and stained with Sulforhodamine B. After washing with trichloroacetic acid, bound dye is solubilized in 10 mM Tris base and optical density is determined using plate reader. Under conditions of the assay the optical density is proportional to the number of cells in the well. […] The test procedure is described in detail by Philip Skehan et. al, J. Natl. Canc. Inst., 82, 1107-1112 (1990). […] Information about some of the cell lines used in these test procedures is available from the American Type Tissue Collection: Cell Lines and Hybridomas, 1994 Reference Guide, 8th Edition.

MDA-MB-435 = assay: as above; assay type: cell-based; settings: Homo sapiens, 48 hours exposure
Description: as §1

SW620 = assay: as above; assay type: cell-based; settings: Homo sapiens, SW-620; 48 hours exposure
Description: as §1

SK-BR3 = assay: as above; assay type: cell-based; settings: Homo sapiens, SK-BR-3; 48 hours exposure
Description: as §1

p60^c-src (Src) = molecular target: T2, p60^c-src (Src) (Homo sapiens, UniProt P12931); assay: Src kinase test procedure (Elisa format); assay type: biochemical
T2 construct: purchased Upstate Biotechnologies
T2 sequence (P12931 whole entry): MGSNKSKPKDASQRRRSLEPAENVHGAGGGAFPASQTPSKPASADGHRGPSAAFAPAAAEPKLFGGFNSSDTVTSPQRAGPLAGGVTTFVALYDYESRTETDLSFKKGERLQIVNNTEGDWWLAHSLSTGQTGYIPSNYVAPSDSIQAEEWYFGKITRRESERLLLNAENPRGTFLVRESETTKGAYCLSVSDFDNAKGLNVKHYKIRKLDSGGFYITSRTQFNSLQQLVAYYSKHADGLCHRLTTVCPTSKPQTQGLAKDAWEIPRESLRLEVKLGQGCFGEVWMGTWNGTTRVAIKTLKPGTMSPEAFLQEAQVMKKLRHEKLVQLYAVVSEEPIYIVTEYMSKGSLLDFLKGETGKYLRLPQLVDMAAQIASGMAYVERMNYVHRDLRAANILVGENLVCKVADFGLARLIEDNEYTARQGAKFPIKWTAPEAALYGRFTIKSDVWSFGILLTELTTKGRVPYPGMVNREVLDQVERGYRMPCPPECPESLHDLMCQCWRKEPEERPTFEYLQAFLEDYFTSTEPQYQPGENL
Description: Inhibitors of p60^c-src (partially purified preparation purchased from Upstate Biotechnologies) tyrosine kinase activity are analyzed in an Elisa format. […] HRP-conjugated anti-phosphotyrosine is used to detect phosphorylated peptide via a color reaction. Conditions recommended by the manufacturer are employed.
Reaction conditions: Five microliter aliquots of each compound prepared fresh at the time of the assay are added as a solution in 10mM HEPES pH 7.5, 10% DMSO to the reaction well. Thirty-five microliters of reaction mix containing Src, buffer and peptide/bovine serum albumin mix are added to the compound wells and incubated at 30°C for 10 minutes (reaction buffer: 50mM TrisHCl pH 7.5, 10mM MgCl2, 0.1mM EGTA, 0.5mM Na3VO4). The reaction is started by addition of 10 microliters of ATP, incubated at 30°C for 1 hour, and stopped by addition of 20 microliters of 0.5M EDTA. The reaction mixture with the phosphorylated peptide is then transferred to a streptavidin-coated microtiter plate (provided in the kit) and allowed to bind for 20 minutes. Unbound peptide and reaction mixture is decanted and the plate is washed with PBS six times. Horseradish peroxidase-conjugated phosphotyrosine antibody supplied in the kit is incubated with the plate for one hour, then decanted. The plate is again washed with PBS six times.

[2] = system: Rat2 fibroblasts stably transformed with v-Src/Hu c-Src fusion gene; assay: Anchorage independent Src-transformed fibroblast proliferation test procedure; assay type: cell-based; settings: Rattus norvegicus, the 3rd table c6, (a)-(d) = average of two to five runs, read-out: Src TF prolif IC50
Source text: Anchorage Independent Src-transformed Fibroblast Proliferation Test Procedure: Rat2 fibroblasts stably transformed with a plasmid containing a CMV promotor controlled v-Src/Hu c-Src fusion gene in which the catalytic domain of human c-Src is inserted in place of the v-Src catalytic domain in the v-Src gene are used for the measurement of src dependent suspension growth.

| IC50 [1] | IC50 (A431) | IC50 (MDA-MB-435) | IC50 (SW620) | IC50 (SK-BR3) | inhibition at 0.01 µM (p60^c-src (Src); dose 0.01 µM, read-out: Src %Inh) | inhibition at 10 µM (p60^c-src (Src); dose 10 µM, read-out: Src %Inh) | Src %Inh (p60^c-src (Src); dose 10 µM) | inhibition at 1 µM (p60^c-src (Src); dose 1 µM, read-out: Src %Inh) | SMILES | IC50 [2] |
| --- | --- | --- | --- | --- | --- | --- | --- | --- | --- | --- |
| 0.005 µM | 0.332 µg/mL (≈ 0.955 µM) | 1.65 µg/mL (≈ 4.74 µM) | 1.08 µg/mL (≈ 3.11 µM) | 1.01 µg/mL (≈ 2.9 µM) | – | – | – | – | N#Cc1cnc2cc3ccccc3cc2c1Nc1ccc(F)c(Cl)c1 [Example 4, 4-(3-Chloro-4-fluoroanilino)benzo[g]quinoline-3-carbonitrile] | – |
| – | 0.58 µg/mL (≈ 1.46 µM) | 0.85 µg/mL (≈ 2.15 µM) | 0.38 µg/mL (≈ 0.959 µM) | > 5 µg/mL | 10% | – | – | – | N#Cc1cnc2cc3cc(O)c(O)cc3cc2c1Nc1ccc(Cl)cc1Cl [Example 15, 4-(2,4-Dichloroanilino)-7,8-dihydroxybenzo[g]quinoline-3-carbonitrile] | – |
| 0.0015 µM | 0.58 µg/mL (≈ 1.59 µM) | 3.48 µg/mL (≈ 9.56 µM) | 3.72 µg/mL (≈ 10.2 µM) | 0.6 µg/mL (≈ 1.65 µM) | – | – | – | – | N#Cc1cnc2c(c1Nc1cccc(Br)c1)C=C1N=CN=C1C2 [Example 37, 8-(3-Bromo-phenylamino)imidazo[4,5-g]quinoline-7-carbonitrile] | – |
| 1 µM | > 5 µg/mL | > 5 µg/mL | > 5 µg/mL | > 5 µg/mL | – | 7% | – | – | N#Cc1cnc2c(sc3ccccc32)c1Nc1cccc(Br)c1 [Example 65, 4-(3-Bromophenylamino)benzo[4,5]thieno[3,2-b]pyridine-3-carbonitrile] | – |
| 1 µM | > 5 µg/mL | > 5 µg/mL | > 5 µg/mL | > 5 µg/mL | – | 53% | 44% | – | N#Cc1cnc2c(oc3ccccc32)c1Nc1cccc(Br)c1 [Example 85, 4-(3-Bromophenylamino)benzo[4,5]furo[3,2-b]pyridine-3-carbonitrile] | – |
| – | 0.41 µg/mL (≈ 0.987 µM) | 0.46 µg/mL (≈ 1.11 µM) | 0.67 µg/mL (≈ 1.61 µM) | 0.59 µg/mL (≈ 1.42 µM) | – | – | – | 0% | N#Cc1cnc2c(sc3ccc([N+](=O)[O-])cc32)c1Nc1ccc(Cl)cc1Cl [Example 90, 4-(2,4-Dichloroanilino)-8-nitro[1]benzothieno[3,2-b]pyridine-3-carbonitrile] | – |
| – | > 5 µg/mL | > 5 µg/mL | > 5 µg/mL | > 5 µg/mL | – | – | – | – | N#Cc1cnc2c(sc3ccc(N)cc32)c1Nc1cccc(Br)c1 [Example 92, 8-Amino-4-(3-bromoanilino)-[1]benzothieno[3,2-b]pyridine-3-carbonitrile] | – |
| – | 0.838 µg/mL (≈ 1.86 µM) | 1.69 µg/mL (≈ 3.76 µM) | 1 µg/mL (≈ 2.23 µM) | 0.224 µg/mL (≈ 0.499 µM) | – | – | – | – | C=CC(=O)Nc1ccc2sc3c(Nc4cccc(Br)c4)c(C#N)cnc3c2c1 [Example 93, N-[4-(3-Bromoanilino)-3-cyano[1]benzothieno[3,2-b]pyridin-8-yl]acrylamide] | – |
| 0.1 µM | 1.11 µg/mL (≈ 2.47 µM) | 3.9 µg/mL (≈ 8.68 µM) | > 5 µg/mL | 1.09 µg/mL (≈ 2.43 µM) | – | – | – | – | C=CC(=O)Nc1cccc2c1sc1c(Nc3cccc(Br)c3)c(C#N)cnc12 [Example 94, N-[4-(3-Bromoanilino)-3-cyano[1]benzothieno[3,2-b]pyridin-6-yl]acrylamide] | – |
| 1.89 µM | 0.76 µg/mL (≈ 1.5 µM) | – | 0.36 µg/mL (≈ 0.71 µM) | 0.04 µg/mL (≈ 0.0789 µM) | – | – | – | – | COc1cc2cc3ncc(C#N)c(Nc4ccc(F)c(Cl)c4)c3cc2cc1OCCN1CCOCC1 [Example 212, 4-(3-Chloro-4-fluoroanilino)-8-methoxy-7-[2-(4-morpholinyl)ethoxy]benzo[g]quinoline-3-carbonitrile] | > 10 µM |
